{"source": "patent EP1013768A1", "about": "“Mutant epoxide hydrolases” (priority 1998, dated 2000)", "data": [{"tested_on": "epoxide hydrolase from Agrobacterium radiobacter AD1, wild type, SEQ ID No. 1", "experiment": "Stereoselective hydrolysis (kinetic resolution) of styrene oxides, comparative experiment with wild type enzyme", "type": "biochemical", "settings": "substrate 5 mM, Tris buffer 50 mM pH9, 30°C, 10% DMSO for meta- and para-chlorostyrene oxide, chiral GLC", "method": "(§1) A screw-cap bottle containing 30 ml Tris buffer^1 (50 mM pH9) was incubated in a shaking waterbath at 30°C. Styrene oxides (SO) as indicated in table 3 were added to a final concentration of 5 mM. The reaction was started by the addition of the a purified enzyme solution of the Tyr215Phe mutant of the epoxide hydrolase from Agrobacterium radiobacter AD1. The kinetic resolution was monitored by periodically taking 1 ml samples (with a 1 ml syringe) from the closed screw-cap bottle. The samples were extracted with diethylether containing 20 mM mesitylene as an internal standard. Prior to analysis by chiral GLC the water was removed from the sample by passing it through a short column containing MgSO4. The enantiomeric excess (%ee) and the yield of the epoxides was determined with a Hewlett-Packard 5890 gas chromatograph equipped with a FID-detector, using a Chiraldex G-TA capillary column, of 50 m lenght and 0.25 mm inside diameter. The data from the chiral GLC are as follows: • styrene oxide, tr(S)=12.4 min and tr(R)=14.8 min at 110°C; • meta-chlorostyrene oxide, tr(S)=20.2 min and tr(R)= 31.1 min at 120°C; • para-chlorostyrene oxide, tr(S)=40.7 min and tr(R)= 43.0 min at 100°C. ^1 In case of meta-chlorostyrene oxide and para-chlorostyrene oxide the buffer also contained 10% DMSO\nExample III was repeated using the corresponding wild type epoxide hydrolase for Agrobacterium radiobacter AD1.", "values": [{"smiles": "O=[N+]([O-])c1ccc(C2CO2)cc1", "note": "(racemic) [P-NO2-SO]", "E-value": 100}, {"smiles": "Clc1cccc(C2CO2)c1", "note": "(stereo not drawn) [M-Cl-SO, meta-chlorostyrene oxide]", "E-value": 6.5}, {"smiles": "Clc1ccc(C2CO2)cc1", "note": "(stereo not drawn) [P-Cl-SO, para-chlorostyrene oxide]", "E-value": 32}, {"smiles": "c1ccc(C2CO2)cc1", "note": "(racemic) [SO, styrene oxide]", "E-value": 16}]}, {"tested_on": "epoxide hydrolase from Agrobacterium radiobacter AD1, Tyr152Phe mutant", "experiment": "Stereoselective hydrolysis (kinetic resolution) of racemic styrene oxide with Tyr152Phe mutant", "type": "biochemical", "settings": "as Example III (5 mM, Tris buffer 50 mM pH9, 30°C)", "values": [{"smiles": "c1ccc(C2CO2)cc1", "note": "(racemic) [SO, styrene oxide]", "E-value": "≥ 40"}]}, {"tested_on": "epoxide hydrolase from Agrobacterium radiobacter AD1, Tyr215Phe mutant", "experiment": "Stereoselective hydrolysis (kinetic resolution) of styrene oxides with Tyr215Phe mutant", "type": "biochemical", "settings": "substrate 5 mM, Tris buffer 50 mM pH9, 30°C, 10% DMSO for meta- and para-chlorostyrene oxide, chiral GLC", "method": "Site directed mutagenesis was done as described by Kunkel (Proc. Natl. Acad. Sci. U.S.A., 82, 488-492 (1985)) with uracil-containing single stranded plasmid pEH20 as template (Rink et al.). Tyr^215 was mutated to Phe with the primer 5'-[…]-3' (mutated codon underlined). In order to confirm the mutation, the whole gene was sequenced as described in Rink et al.\nas §1", "values": [{"smiles": "O=[N+]([O-])c1ccc(C2CO2)cc1", "note": "(racemic) [P-NO2-SO]", "E-value": "> 200"}, {"smiles": "Clc1cccc(C2CO2)c1", "note": "(stereo not drawn) [M-Cl-SO, meta-chlorostyrene oxide]", "E-value": 13}, {"smiles": "Clc1ccc(C2CO2)cc1", "note": "(stereo not drawn) [P-Cl-SO, para-chlorostyrene oxide]", "E-value": 130}, {"smiles": "c1ccc(C2CO2)cc1", "note": "(racemic) [SO, styrene oxide]", "E-value": 30}]}]}
